Results reported in patent US20240425501A1, “NOVEL BICYCLIC HETEROARYL DERIVATIVES AS SOS1:KRAS PROTEINPROTEIN INTERACTION INHIBITORS” (SATYARX PHARMA INNOVATIONS PVT LTD, priority 2021, published 2024).

What follows are molecules tested against T1, hSOS1 enzyme / KRAS (G12C), GST-Tag, GDP-bound protein (Homo sapiens, UniProt Q07889) (assay: SOS1-mediated KRAS guanine nucleotide exchange (GEF) assay, HTRF ("On Assay")). Conditions: 1 μM compound.
T1 sequence (Q07889 564-1049 limits assumed): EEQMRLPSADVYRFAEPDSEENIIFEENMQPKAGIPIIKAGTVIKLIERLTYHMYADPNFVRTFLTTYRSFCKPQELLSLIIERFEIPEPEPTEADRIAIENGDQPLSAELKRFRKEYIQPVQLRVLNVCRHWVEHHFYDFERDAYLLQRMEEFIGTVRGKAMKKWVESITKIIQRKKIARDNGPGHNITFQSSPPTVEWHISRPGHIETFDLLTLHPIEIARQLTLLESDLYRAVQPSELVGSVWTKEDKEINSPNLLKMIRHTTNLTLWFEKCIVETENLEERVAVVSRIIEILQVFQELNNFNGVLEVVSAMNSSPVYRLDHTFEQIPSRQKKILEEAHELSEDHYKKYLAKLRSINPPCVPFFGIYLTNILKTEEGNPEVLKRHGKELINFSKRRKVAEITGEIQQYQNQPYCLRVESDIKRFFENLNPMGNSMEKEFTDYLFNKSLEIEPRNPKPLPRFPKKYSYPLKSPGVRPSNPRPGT
Assay type: biochemical
Outline: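 Compounds were preincubated 10 min at 25 °C with GDP-loaded GST-KRAS G12C and Tb-anti-GST (working solution 100 nM/2 nM) in HEPES pH 7, 5 mM MgCl2. hSOS1 plus DY-647P-labelled GTP (working solution 20 nM/200 nM) was then added for 10 min. HTRF was read at 665/615 nm with 320 nm excitation, and wells lacking SOS1 served as negative control.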
For `CNc1nc(N[C@H](C)c2cc(N)cc(C(F)(F)F)c2)c2cc(N3CCOCC3)ccc2n1` [Example 74, (R)—N4-(1-(3-amino-5-(trifluoromethyl)phenyl)ethyl)-N2-methyl-6-morpholinoquinazoline-2,4-diamine], the inhibition at 1 µM was no less than 50%.
For `CCC(=O)Nc1nc(N[C@H](C)c2cc(N)cc(C(F)(F)F)c2)c2cc(N3CCCC3)ncc2n1` [Example 75, (R)—N-(4-((1-(3-amino-5-(trifluoromethyl)phenyl)ethyl)amino)-6-(pyrrolidin-1-yl)pyrido[3,4-d]pyrimidin-2-yl)propionamide], the inhibition at 1 µM was less than 50%.
Work on `COCC(=O)Nc1nc(N[C@H](C)c2cc(N)cc(C(F)(F)F)c2)c2cc(N3CCCC3)ncc2n1` [Example 76, (R)—N-(4-((1-(3-amino-5-(trifluoromethyl)phenyl)ethyl)amino)-6-(pyrrolidin-1-yl)pyrido[3,4-d]pyrimidin-2-yl)-2-methoxyacetamide] yielded an inhibition at 1 µM of less than 50%.
`C[C@@H](Nc1nc(NC(=O)CN)nc2cnc(N3CCCC3)cc12)c1cc(N)cc(C(F)(F)F)c1` [Example 77, (R)-2-amino-N-(4-((1-(3-amino-5-(trifluoromethyl)phenyl)ethyl)amino)-6-(pyrrolidin-1-yl)pyrido[3,4-d]pyrimidin-2-yl)acetamide hydro chloride] showed an inhibition at 1 µM of no less than 50%.
`CNCCC(=O)Nc1nc(N[C@H](C)c2cc(N)cc(C(F)(F)F)c2)c2cc(N3CCCC3)ncc2n1` [Example 78] was tested, and the inhibition at 1 µM was no less than 50%.
In the case of `CNCCC(=O)Nc1nc(N[C@H](C)c2cc(N)cc(C(F)(F)F)c2)c2cc(N3CCOCC3)ncc2n1` [Example 79, (R)—N-(4-((1-(3-amino-5-(trifluoromethyl)phenyl)ethyl)amino)-6-morpholinopyrido[3,4-d]pyrimidin-2-yl)-3-(methylamino)propanamide], the inhibition at 1 µM was no less than 50%.
`CCN1CCN(c2cnc3nc(Cl)nc(N[C@H](C)c4cc(N)cc(C(F)(F)F)c4)c3c2)CC1` [Example 80, (R)—N-(1-(3-amino-5-(trifluoromethyl)phenyl)ethyl)-2-chloro-6-(4-ethylpiperazin-1-yl)pyrido[2,3-d]pyrimidin-4-amine] gave an inhibition at 1 µM of no less than 50%.
Work on `CCN1CCN(c2cnc3nc(OC)nc(N[C@H](C)c4cc(N)cc(C(F)(F)F)c4)c3c2)CC1` [Example 81, (R)—N-(1-(3-amino-5-(trifluoromethyl)phenyl)ethyl)-6-(4-ethylpiperazin-1-yl)-2-methoxypyrido[2,3-d]pyrimidin-4-amine] yielded an inhibition at 1 µM of no less than 50%.
In the case of `C[C@@H](Nc1nc(Cl)nc2ncc(N3CCN(C)CC3)cc12)c1cc(N)cc(C(F)(F)F)c1` [Example 82, (R)—N-(1-(3-amino-5-(trifluoromethyl)phenyl)ethyl)-2-chloro-6-(4-methylpiperazin-1-yl)pyrido[2,3-d]pyrimidin-4-amine], the inhibition at 1 µM was no less than 50%.
Work on `C[C@@H](Nc1nc(Cl)nc2ncc(N3CCCCC3)cc12)c1cc(N)cc(C(F)(F)F)c1` [Example 83, (R)—N-(1-(3-amino-5-(trifluoromethyl)phenyl)ethyl)-2-chloro-6-(piperidin-1-yl)pyrido[2,3-d]pyrimidin-4-amine] yielded an inhibition at 1 µM of no less than 50%.
`C[C@@H](Nc1nc(Cl)nc2ncc(N3CCOCC3)cc12)c1cc(N)cc(C(F)(F)F)c1` [Example 84, (R)—N-(1-(3-amino-5-(trifluoromethyl)phenyl)ethyl)-2-chloro-6-morpholinopyrido[2,3-d]pyrimidin-4-amine] was tested, and the inhibition at 1 µM was no less than 50%.
Molecule `CCN1CCN(c2cc3c(N[C@H](C)c4cc(N)cc(C(F)(F)F)c4)cnnc3cn2)CC1` [Example 85, (R)—N-(1-(3-amino-5-(trifluoromethyl)phenyl)ethyl)-6-(4-ethylpiperazin-1-yl)pyrido[3,4-c]pyridazin-4-amine] has an inhibition at 1 µM of no less than 50%.
Work on `CCN1CCN(c2cnc3c(C)nnc(N[C@H](C)c4cc(N)cc(C(F)(F)F)c4)c3c2)CC1` [Example 86, (R)—N-(1-(3-amino-5-(trifluoromethyl)phenyl)ethyl)-3-(4-ethylpiperazin-1-yl)-8-methylpyrido[2,3-d]pyridazin-5-amine] yielded an inhibition at 1 µM of no less than 50%.
